Test results from patent publication US12473310B2, “Vitamin D3 phosphate and pharmaceutically acceptable salts thereof, pharmaceutical compositions comprising the compound and methods for preparing the compound” (King's College London, priority 2020, dated 2025).
Where a name gives a salt, the structure may show the parent alone. Read-outs that look alike come from different tables or passages of the source.

Tests used:
physchem [1] = format: physicochemical
Experimental: To validate the method of test agent recovery from the skin, solutions (1.0 mg/mL) of each vitamin D analogue were prepared in 100% PG. The precise concentrations in these samples were analysed by HPLC method described above. To assess the chemical stability of each test agent in the donor solutions used in the Franz cell experiments, 1.0 mg/mL of the samples prepared in 100% PG were incubated in a water bath at 37° C. for 24 h. In addition, to understand the chemical stability of each test agent in the extraction solvents used in the skin deposition studies, 1 mL of the drug sample in 100% PG was added into 10 mL of extraction fluid (MeOH for cholecalciferol, cholecalciferol phosphate acid, and MeOH:water, 90:10 for cholecalciferol phosphate disodium salt). Samples in PG (n=3) and samples in PG with the extraction fluid (n=3) were left in the water bath overnight at 37° C. and the sample concentration was analysed by the HPLC method described above. To assess whether the HPLC fluid had been impacted by any proteins that had leaked out of the skin, PG:water, 80:20 was added to donor and receiver chambers of porcine skin loaded Franz cells (n=3). A 5 mL sample of the receiver fluid was collected, and 25 μL of each test solution was added to this fluid and diluted to MeOH (1:1) and analysed by the HPLC method described previously. To verify the percentage of drug that could be recovered from the skin tissue, the skin sections were dermatomed (1 mm thickness) (n=3). The test solutions were spiked (50 μL) into a sample bottle containing the chopped dermatomed skin tissue. The samples containing the spiked drugs were left for 1 h for the drugs to absorb into the tissues. After the 1 h incubation period, 5 mL of extraction fluid (MeOH for cholecalciferol, cholecalciferol phosphate acid, and MeOH:water, 90:10 for cholecalciferol phosphate disodium salt) was added into each piece of the dermatomed skin tissue, then incubated in a shaking water bath for 1 h. The solutions were then tissue lysed by a tissue lyser for 40 min and homogenised by Ultra Turrax for 1 min and filtered using 0.45 μm syringe filters, centrifuged for 10 min at 13,000 rpm, and analysed by the HPLC method described above. In terms of cholecalciferol phosphate acid, after 1 h incubation and adding 5 mL extraction fluid, immediately the solutions with skin tissues were tissue lysed by a tissue lyser for 15 min. The solutions were then centrifuged for 10 min at 13,000 rpm and the supernatants were analysed by the HPLC method described above.

in vitro = in vitro ADME, porcine; settings: for total penetration into / deposited in the skin: vehicle 100% PG, 0.25 mm porcine skin
Experimental: Donor solutions (2.5 mg/mL, 100,000 IU), which is an infinite dose, containing cholecalciferol and cholecalciferol phosphate disodium prepared according to Example 1, were compared to PG:EtOH (50:50) for cholecalciferol and 100% water for cholecalciferol phosphate.
The Franz diffusion cell was used to investigate the permeation of cholecalciferol and cholecalciferol phosphate through porcine skin. Fresh white adult porcine ears were obtained and any damaged ears were discarded. The ears were removed from the carcass after hair removal. The ears were washed with deionised water, the residual water on the skin surface was immediately removed by blotting with a tissue, visible hairs were trimmed carefully, and the ears were stored at −20° C. for no longer than 30 days until required. On the day of the experiment the skin was defrosted, and the subcutaneous fat was removed using a scalpel. The tissue was cut into the appropriate size sections (0.25 mm thick, 2.19±0.21 cm^2) to be mounted with the stratum corneum (SC) facing the donor compartment between donor and receiver compartments of Franz diffusion cells. The pieces of skins were sealed between the two compartments using parafilm, and 12 mm magnetic follows was placed into the receiver compartment. The receiver compartment in the Franz diffusion cell was filled with 100% PG for cholecalciferol; and a 1:1 mixture of PG: (MeOH:PBS ([…]), 90:10) for cholecalciferol phosphate (9.23±0.23 mL). The cell sealing was confirmed by cell inversion and monitoring solvent back diffusion. Sink conditions were maintained throughout the transport assays. The temperature of the Franz diffusion was maintained at 37° C. in a water bath, to set up the skin temperature 32° C. (Maddock, W. G. and Coller, F. A., ([…]) The role of the extremities in the dissipation of heat, American Journal of Physiology-Legacy Content, 106(3), 589-596). After 1 h equilibration at 37° C. in the water bath, 1 mL of receiver fluid was taken at time points 0 in 30 min and a fresh 100% PG was replaced to keep the volume content, and 1 mL of each formulation was applied in the donor compartment. After 24 h, the receiver fluid was collected and analysed by HPLC methods.
At the end of the transport studies, the Franz cells were dismantled, and the donor solution was collected into bottles containing 10 mL of extraction fluid; PG:EtOH (50:50) for cholecalciferol and MeOH:water (90:10) for cholecalciferol phosphate, by wiping the surface of the skin and inside of the donor compartment with two wet and then two dry cotton buds. The SC was removed from the epidermis by tape stripping. A 300 mg weight was used onto the skin to press the adhesive tape to apply defined pressure for 10 sec. A piece of tape that can cover the diffusion area was used to remove the SC. The first two pieces of tape were added into the donor solution, as the first 2 strips were considered as part of the applied formulation and its removal was part of the formulation wash off (Primo, F. L. et al., (2008) In vitro studies of cutaneous retention of magnetic nanoemulsion loaded with zinc phthalocyanine for synergic use in skin cancer treatment, Journal of Magnetism and Magnetic Materials, 320(14), e211-e214.; Sheth, N. V. et al., (1987) Measurement of the stratum corneum drug reservoir to predict the therapeutic efficacy of topical iododeoxyuridine for herpes simplex virus infection. Journal of investigative dermatology, 89(6), 598-602). The next 20 pieces of tapes were added into bottles containing 10 mL of extraction fluid. The epidermis was removed from the dermis and cut into small pieces by scalpels, placed in bottles containing 2 mL of extraction fluid. Furthermore, the dermis was cut into small pieces and was placed in bottles containing 2 mL of extraction fluid. […]

physchem [2] = format: physicochemical; settings: for % Recovery, chemical stability with extraction fluid: 0.091 mg/mL; for recovery at 0.091 mg/mL: chemical stability with extraction fluid
Experimental: To validate the method of test agent recovery from the skin, solutions (1.0 mg/mL) of cholecalciferol phosphate were prepared in 100% PG and 100% water and the same concentration of cholecalciferol was prepared in 100% PG and PG:EtOH (50:50). The precise concentrations in these samples were analysed by HPLC using the method described above.
To assess the chemical stability of cholecalciferol and cholecalciferol phosphate in the donor solutions used in the Franz cell experiments, the 1.0 mg/mL of the samples prepared in the different solvents were incubated in a water bath at 37° C. for 24 h. In addition, to understand the chemical stability of cholecalciferol and cholecalciferol phosphate in the extraction solvents used in the skin deposition studies, a 1 mL of the sample of the drug in the different solvents was added into 10 mL of extraction fluid (PG:EtOH, 50:50 for cholecalciferol and MeOH:water, 90:10 for cholecalciferol phosphate). Samples with the extraction fluid were left in the water bath overnight at 37° C. and the sample concentration was analysed by HPLC method described above.

Structure (SMILES) | % Recovery, chemical stability with extraction fluid (physchem [1]; 0.091 mg/mL) | % Recovery, chemical stability without extraction fluid (physchem [1]; 24 h, 1 mg/mL) | deposition in the dermis compared with cholecalciferol (in vitro) | deposited in the skin (in vitro; pig, 24 h, 2.5 mg/mL) | deposition in the SC (in vitro; pig, 24 h, 2.5 mg/mL) | deposition in the epidermis (in vitro; pig, 24 h, 2.5 mg/mL) | skin deposition, times more than the cholecalciferol (in vitro; pig, 24 h, 2.5 mg/mL) | total penetration into / deposited in the skin (in vitro; 2.5 mg/mL, 24 h) | transdermal penetration, passed all the way through the skin (in vitro; vehicle PG, 24 h) | % Recovery, chemical stability with extraction fluid (physchem [2]) | degradation (physchem [2]; 24 h, 1 mg/mL) | recovery at 0.091 mg/mL (physchem [2]; % Recovery) | recovery at 0.091 mg/mL (physchem [1]) | recovery at 24 h, 1 mg/mL (physchem [1]) | total recovery from the skin permeation experiments (in vitro; pig, 24 h, 2.5 mg/mL) | recovery at 24 h, 2.5 mg/mL (in vitro; pig, total recovery from the skin permeation experiments) | total penetration into the skin (in vitro; vehicle PG:EtOH (50:50), 24 h) | deposition in the SC (in vitro; vehicle PG, 24 h) | deposition in the epidermis (in vitro; vehicle PG, 24 h) | recovery at 24 h, 1 mg/mL (physchem [2]; % Recovery, chemical stability without extraction fluid)
C=C1CC[C@H](OP(=O)(O)O)C/C1=C/C=C1\CCC[C@@]2(C)C1CC[C@@H]2[C@H](C)CCCC(C)C (stereo partly drawn) [Cholecalciferol phosphate disodium salt, cholecalciferol phosphate disodium salt] | 95.18 ± 4.82% | 81.87 ± 2.46% | not statistically different | 29.59±9.44 μg/cm^2 | 50.15±8.20 μg/cm^2 | 113.96±18.79 μg/cm^2 | 1.97 times | 189.99±29.10 μg/cm^2 | 50.50±6.40 μg/cm^2 | 76.01 ± 1.42% | 20% | 95.2 ± 5.88% |  |  |  |  |  |  |  | 
C=C1CC[C@H](O)C/C1=C/C=C1\CCC[C@]2(C)[C@@H]([C@H](C)CCCC(C)C)CC[C@@H]12 [Cholecalciferol, cholecalciferol, reference compound] |  |  |  |  |  |  |  | 96.51±17.88 μg/cm^2 | did not pass through the tissue | 90.52 ± 0.42% |  | 91.76 ± 0.87% | 91.97 ± 0.63% | 77.5 ± 7.05% | 80% | 61% | 80.63±13.23 μg/cm^2 | 1.79±1.80 μg/cm^2 | 40.13±24.26 μg/cm^2 | 90%
